In ChEMBL document CHEMBL1201862, “PubChem BioAssay data set” (2004):
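48-hour exposure; five concentrations; linearly interpolated endpoints. Abbreviation: GI50, concentration required for 50% inhibition of growth.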 Calls of active or inactive are those of the source. Cut-off read from the data, not from the text of the source: active = GI50 up to about 1.1 µM and inactive = higher.

Columns and labels:
Assay in all cases: NCI tumour cell line growth inhibition, 48 h
A549 = system: A549
HCT-116 = system: HCT-116
SK-MEL-28 = system: SK-MEL-28
EKVX = system: EKVX
SNB-19 = system: SNB-19
MDA-MB-231 = system: MDA-MB-231
NCI-H226 = system: NCI-H226
HCT-15 = system: HCT-15
RXF 393 = system: RXF 393
SR = system: SR
LOX IMVI = system: LOX IMVI
CCRF-CEM = system: CCRF-CEM
OVCAR-4 = system: OVCAR-4
SF-295 = system: SF-295
PC-3 = system: PC-3
SN12C = system: SN12C
COLO 205 = system: COLO 205
SK-OV-3 = system: SK-OV-3
T47D = system: T47D
MCF7 = system: MCF7
HOP-62 = system: HOP-62
HL-60 = system: HL-60
NCI-H460 = system: NCI-H460
ACHN = system: ACHN
A498 = system: A498
NCI/ADR-RES = system: NCI/ADR-RES
OVCAR-3 = system: OVCAR-3
OVCAR-5 = system: OVCAR-5
UO-31 = system: UO-31
MOLT-4 = system: MOLT-4
HCC 2998 = system: HCC 2998
NCI-H23 = system: NCI-H23
RPMI-8226 = system: RPMI-8226
HT-29 = system: HT-29
OVCAR-8 = system: OVCAR-8
SNB-75 = system: SNB-75
KM12 = system: KM12
786-0 = system: 786-0
Hs-578T = system: Hs-578T
SK-MEL-2 = system: SK-MEL-2
SF-539 = system: SF-539
SW-620 = system: SW-620
UACC-257 = system: UACC-257
MDA-MB-435 = system: MDA-MB-435
U-251 = system: U-251
BT-549 = system: BT-549
IGROV-1 = system: IGROV-1
K562 = system: K562
CAKI-1 = system: CAKI-1
M14 = system: M14
DU-145 = system: DU-145
TK-10 = system: TK-10
Malme-3M = system: Malme-3M
HOP-92 = system: HOP-92
SF-268 = system: SF-268
NCI-H522 = system: NCI-H522
UACC-62 = system: UACC-62
MDA-N = system: MDA-N
SK-MEL-5 = system: SK-MEL-5

## C[n+]1cccc2ccc3cccnc3c21
A549
  GI50: 5.64 µM (inactive)
HCT-116
  GI50: 19.4 µM (inactive)
SK-MEL-28
  GI50: 55.7 µM (inactive)
EKVX
  GI50: 6.84 µM (inactive)
SNB-19
  GI50: 30.8 µM (inactive)
MDA-MB-231
  GI50: 83.6 µM (inactive)
NCI-H226
  GI50: 20.6 µM (inactive)
HCT-15
  GI50: 61.8 µM
RXF 393
  GI50: 46.3 µM (inactive)
SR
  GI50: > 100 µM (inactive)
LOX IMVI
  GI50: 29 µM (inactive)
CCRF-CEM
  GI50: > 100 µM (inactive)
OVCAR-4
  GI50: 33.8 µM (inactive)
SF-295
  GI50: 43.6 µM (inactive)
PC-3
  GI50: 27.5 µM (inactive)
SN12C
  GI50: 35.1 µM (inactive)
COLO 205
  GI50: 17.7 µM (inactive)
SK-OV-3
  GI50: 47.6 µM (inactive)
T47D
  GI50: 21 µM (inactive)
MCF7
  GI50: 38.5 µM (inactive)
HOP-62
  GI50: 19.5 µM (inactive)
HL-60
  GI50: > 100 µM (inactive)
NCI-H460
  GI50: 23.2 µM (inactive)
ACHN
  GI50: 20.9 µM (inactive)
A498
  GI50: 32.5 µM (inactive)
NCI/ADR-RES
  GI50: > 100 µM (inactive)
OVCAR-3
  GI50: 26.3 µM (inactive)
OVCAR-5
  GI50: 82 µM (inactive)
UO-31
  GI50: 21.8 µM (inactive)
MOLT-4
  GI50: > 100 µM (inactive)
HCC 2998
  GI50: 49.2 µM (inactive)
NCI-H23
  GI50: 18.2 µM (inactive)
RPMI-8226
  GI50: 4.91 µM (inactive)
HT-29
  GI50: 28.2 µM (inactive)
OVCAR-8
  GI50: 12.3 µM (inactive)
SNB-75
  GI50: 23.6 µM (inactive)
KM12
  GI50: 9.08 µM (inactive)
786-0
  GI50: 63.5 µM (inactive)
Hs-578T
  GI50: 12.7 µM (inactive)
SK-MEL-2
  GI50: 19.3 µM (inactive)
SF-539
  GI50: 48 µM (inactive)
SW-620
  GI50: 32.4 µM (inactive)
UACC-257
  GI50: 41.9 µM (inactive)
MDA-MB-435
  GI50: 69.2 µM (inactive)
U-251
  GI50: 18.5 µM (inactive)
BT-549
  GI50: 31.7 µM (inactive)
IGROV-1
  GI50: 76 µM (inactive)
K562
  GI50: > 100 µM (inactive)
CAKI-1
  GI50: > 100 µM (inactive)
M14
  GI50: 44.7 µM (inactive)
DU-145
  GI50: 49.9 µM (inactive)
TK-10
  GI50: 27.5 µM (inactive)
Malme-3M
  GI50: 16.1 µM (inactive)
HOP-92
  GI50: 57.7 µM (inactive)
SF-268
  GI50: 17.6 µM (inactive)
NCI-H522
  GI50: 10 µM (inactive)
UACC-62
  GI50: 55.3 µM (inactive)
MDA-N
  GI50: 67.5 µM (inactive)
SK-MEL-5
  GI50: 16.2 µM (inactive)

## C[Si](C)(C)OC1(C#N)c2ccccc2CCCC12CCCC2 (configuration not stated)
A549
  GI50: 34.9 µM (inactive)
HCT-116
  GI50: 26.6 µM (inactive)
SK-MEL-28
  GI50: 44.5 µM (inactive)
EKVX
  GI50: 31.3 µM (inactive)
SNB-19
  GI50: 44 µM (inactive)
MDA-MB-231
  GI50: 50.9 µM (inactive)
NCI-H226
  GI50: > 100 µM (inactive)
HCT-15
  GI50: 39 µM
RXF 393
  GI50: 26.5 µM (inactive)
SR
  GI50: 29.6 µM (inactive)
LOX IMVI
  GI50: 22 µM (inactive)
CCRF-CEM
  GI50: 19.6 µM (inactive)
OVCAR-4
  GI50: 80 µM (inactive)
SF-295
  GI50: 34 µM (inactive)
PC-3
  GI50: 41.1 µM (inactive)
SN12C
  GI50: 59.4 µM (inactive)
COLO 205
  GI50: 37.1 µM (inactive)
SK-OV-3
  GI50: > 100 µM (inactive)
T47D
  GI50: 24.7 µM (inactive)
MCF7
  GI50: 30.1 µM (inactive)
HOP-62
  GI50: 67.9 µM (inactive)
HL-60
  GI50: 17.8 µM (inactive)
NCI-H460
  GI50: 37.6 µM (inactive)
ACHN
  GI50: 30.1 µM (inactive)
A498
  GI50: 46.6 µM (inactive)
NCI/ADR-RES
  GI50: 89.5 µM (inactive)
OVCAR-3
  GI50: 46 µM (inactive)
OVCAR-5
  GI50: > 100 µM (inactive)
UO-31
  GI50: 99.5 µM (inactive)
MOLT-4
  GI50: 23.1 µM (inactive)
HCC 2998
  GI50: 16.4 µM (inactive)
NCI-H23
  GI50: 45.7 µM (inactive)
RPMI-8226
  GI50: 21.6 µM (inactive)
HT-29
  GI50: 27.8 µM (inactive)
OVCAR-8
  GI50: 50.9 µM (inactive)
SNB-75
  GI50: 49.8 µM (inactive)
KM12
  GI50: 42.8 µM (inactive)
786-0
  GI50: 54.7 µM (inactive)
Hs-578T
  GI50: 62.1 µM (inactive)
SK-MEL-2
  GI50: 18.5 µM (inactive)
SF-539
  GI50: 53.5 µM (inactive)
SW-620
  GI50: 44.9 µM (inactive)
UACC-257
  GI50: 21.4 µM (inactive)
MDA-MB-435
  GI50: 44.1 µM (inactive)
U-251
  GI50: 29.4 µM (inactive)
BT-549
  GI50: > 100 µM (inactive)
IGROV-1
  GI50: 43.3 µM (inactive)
K562
  GI50: 34.7 µM (inactive)
CAKI-1
  GI50: > 100 µM (inactive)
M14
  GI50: 48.3 µM (inactive)
DU-145
  GI50: 61.1 µM (inactive)
TK-10
  GI50: > 100 µM (inactive)
Malme-3M
  GI50: 39.4 µM (inactive)
HOP-92
  GI50: 29.1 µM (inactive)
SF-268
  GI50: 57.4 µM (inactive)
NCI-H522
  GI50: 21.9 µM (inactive)
UACC-62
  GI50: 80.2 µM (inactive)
MDA-N
  GI50: 46 µM (inactive)
SK-MEL-5
  GI50: 24.1 µM (inactive)

## COc1cccc(NC(=O)CC(=O)n2nc(-c3ccccc3)c(/N=N/c3ccc(Cl)cc3)c2-c2ccccc2)c1
A549
  GI50: 26.1 µM (inactive)
HCT-116
  GI50: 19.4 µM (inactive)
SK-MEL-28
  GI50: 25.5 µM (inactive)
EKVX
  GI50: 24 µM (inactive)
SNB-19
  GI50: 17.8 µM (inactive)
MDA-MB-231
  GI50: 21.3 µM (inactive)
NCI-H226
  GI50: 20.3 µM (inactive)
HCT-15
  GI50: 11.5 µM
RXF 393
  GI50: 23 µM (inactive)
SR
  GI50: 11 µM (inactive)
LOX IMVI
  GI50: 13.2 µM (inactive)
CCRF-CEM
  GI50: 6.92 µM (inactive)
OVCAR-4
  GI50: 36.4 µM (inactive)
SF-295
  GI50: 12.9 µM (inactive)
PC-3
  GI50: 27.9 µM (inactive)
SN12C
  GI50: 18.6 µM (inactive)
COLO 205
  GI50: 23 µM (inactive)
SK-OV-3
  GI50: 5.33 µM (inactive)
T47D
  GI50: 13.9 µM (inactive)
MCF7
  GI50: 7.57 µM (inactive)
HOP-62
  GI50: 15.2 µM (inactive)
HL-60
  GI50: 6.43 µM (inactive)
NCI-H460
  GI50: 10.5 µM (inactive)
ACHN
  GI50: 19.9 µM (inactive)
A498
  GI50: 25.6 µM (inactive)
NCI/ADR-RES
  GI50: 19.5 µM (inactive)
OVCAR-3
  GI50: 22.1 µM (inactive)
OVCAR-5
  GI50: 64.9 µM (inactive)
UO-31
  GI50: 10.2 µM (inactive)
MOLT-4
  GI50: 9.84 µM (inactive)
HCC 2998
  GI50: 17.2 µM (inactive)
NCI-H23
  GI50: 20 µM (inactive)
RPMI-8226
  GI50: 12 µM (inactive)
HT-29
  GI50: 19.6 µM (inactive)
OVCAR-8
  GI50: 15.8 µM (inactive)
SNB-75
  GI50: 42.8 µM (inactive)
KM12
  GI50: 31.7 µM (inactive)
786-0
  GI50: 14.4 µM (inactive)
Hs-578T
  GI50: 26.2 µM (inactive)
SK-MEL-2
  GI50: 21.5 µM (inactive)
SF-539
  GI50: 26.6 µM (inactive)
SW-620
  GI50: 36.1 µM (inactive)
UACC-257
  GI50: 24.3 µM (inactive)
MDA-MB-435
  GI50: 38.7 µM (inactive)
U-251
  GI50: 7.87 µM (inactive)
BT-549
  GI50: 11.8 µM (inactive)
IGROV-1
  GI50: 7.55 µM (inactive)
K562
  GI50: 12.4 µM (inactive)
CAKI-1
  GI50: 36.6 µM (inactive)
M14
  GI50: 15.2 µM (inactive)
DU-145
  GI50: 25.3 µM (inactive)
TK-10
  GI50: 64.1 µM (inactive)
Malme-3M
  GI50: 13.7 µM (inactive)
HOP-92
  GI50: 18.7 µM (inactive)
SF-268
  GI50: 11.6 µM (inactive)
NCI-H522
  GI50: 19.4 µM (inactive)
UACC-62
  GI50: 14.2 µM (inactive)
MDA-N
  GI50: 38.8 µM (inactive)
SK-MEL-5
  GI50: 16.8 µM (inactive)
